Experiments:
[1] = test system: MDA-MB-4355 Breast Cancer Cells; assay: XTT cell proliferation assay, breast cancer cells; parameters: species or system human; conditions: 200 μM based on Re, 24 h
Experimental: (§1) In a typical experiment (see FIG. 10) an average of 2000 cells were grown in microtiter plates (tissue culture grade, 96 wells, flat bottom) in a final volume of 100 μL culture medium per well in a humidified-atmosphere (37° C., >6.5% CO2). After 24 h the rhenium complex was added the wells (final concentrations 200 μM based on Re) and the cells were grown for further 24 h under a humidified atmosphere. After the incubation period 50 μL of the XTT labeling mixture were added to each well. The plates were incubated again for 4 h. After the this final incubation period the spectrophotometrical absorbance (optical density OD) of each well was measured at 450 nm.
(§2) Control experiments were performed as described above without the addition of the rhenium compounds. Blanks were obtained by adding 50 μL of H2O instead of the XTT labeling mixture. Experiments were done in double and the results represent the average.
(§3) The % of cell survival was calculated base on the relative OD of the samples. Maximum control OD was set to 100% cell survival.

[2] = test system: ΦX174 plasmid DNA; assay: Stability of the [M(CO)3]+ ΦX174 plasmid DNA adduct, histidine challenge; assay type: binding; conditions: 100-fold excess of histidine
Experimental: (§4) ΦX174 plasmids were purchased from Promega and used without further purification. ΦX174 RF plasmid DNA (0.1 mg) was mixed with the corresponding rhenium complexes in H2O at [complex]/[bp] 0.018-1.8/1. The mixtures were incubated in water at 37° C. for 22 h in the dark before analyzing by gel electrophoresis. The pH of the mixtures remained constant at ≈7 in all cases.
(§5) DNA binding was examined by gel electrophoretic mobility shift assays through 9 cm 0.75% agarose slab gels with TAE running buffer. The gels were run at RT, with voltages varying between 50 and 75 V. Running time depended upon the voltage and were usually between 1.5-2 h. The resultant gels were stained with ethidium bromide in the buffer at a concentration of ≈0.3 μg/mL. Bands were visualized by […] UV transillumination equipped with a digital camera.
Complexes 1 and 7 were incubated with ΦX174 plasmid DNA as described in Example 6. Subsequently, the plasmid was challenged with histidine to cleave the complexes from ΦX174 plasmid DNA.

[3] = test system: B16 F1 mouse melanoma cells; assay: XTT cell proliferation assay, melanoma cells; conditions: 200 μM based on Re (lower for poorly soluble complexes), 24 h
Experimental: as §1, §2, §3
(§6) The procedure is as described in Example 10 and FIG. 10. Only the cancer cell line varies.

[4] = test system: OVMZ-6-WT Ovarian Cancer Cells; assay: XTT cell proliferation assay, ovarian cancer cells; parameters: species or system human; conditions: 200 μM based on Re, 24 h
Experimental: as §1, §2, §3, §6

[5] = test system: ΦX174 plasmid DNA; assay: Interaction with ΦX174 plasmid DNA, gel electrophoretic mobility shift; assay type: binding; conditions: [complex]/[bp] 0.018-1.8/1, water, 37° C., 22 h, agarose gel
Experimental: as §4, §5

Row | Molecule | cytotoxicity (% of cell survival) [1] | release of complex from ΦX174 plasmid DNA by histidine [2] | cytotoxicity (% of cell survival) [3] | cytotoxicity (% of cell survival) [4] | scrambling (structural change) of ΦX174 plasmid DNA [5]
1 | [Re(9-MeG)2(H2O) (CO)3] (ClO4) [Complex 3] | inhibit cell proliferation | – | – | – | –
2 | (Et4N)2[ReBr3(CO)3] [Complex 1] | inhibit cell proliferation | no release could be observed | strongly inhibit cell proliferation | inhibits cell proliferation | –
3 | N.N.[Cl][Pt][Cl] [cisplatin, reference compound] | – | – | – | – | increased amount of scrambling

Reference: patent US20070071672A1, “Use of metal tricarbonyl complexes as radiotherapeutic chemotoxic agents” (priority 2003, published 2007)
